According to ChEMBL document CHEMBL4196076, “An access to a library of novel triterpene derivatives with a promising pharmacological potential by Ugi and Passerini multicomponent reactions” (Eur J Med Chem, 2018):

Legend:
HT-29 = experiment: Cytotoxicity against human HT-29 cells after 96 hrs by sulforhodamine-B assay; type: functional, cell-based; details: HT-29, 96 h
MCF7 = experiment: Cytotoxicity against human MCF7 cells after 96 hrs by sulforhodamine-B assay; type: functional, cell-based; details: MCF7, 96 h
518A2 = experiment: Cytotoxicity against human 518A2 cells after 96 hrs by sulforhodamine-B assay; type: functional, cell-based; details: 518A2, 96 h
A2780 [1] = experiment: Cytotoxicity against human A2780 cells after 96 hrs by sulforhodamine-B assay; type: functional, cell-based; details: A2780, 96 h
A549 = experiment: Cytotoxicity against human A549 cells after 96 hrs by sulforhodamine-B assay; type: functional, cell-based; details: A549, 96 h
FaDu = experiment: Cytotoxicity against human FADU cells after 96 hrs by sulforhodamine-B assay; type: functional, cell-based
NIH3T3 = experiment: Cytotoxicity against mouse NIH/3T3 cells after 96 hrs by sulforhodamine-B assay; type: cell-based; details: NIH3T3, 96 h
A2780 [2] = experiment: Cell cycle arrest in human A2780 cells assessed as accumulation at sub-G1 phase at 2 uM after 48 hrs by propidium iodide/RNase-staining based flow cytometric analysis; type: functional
A2780 [3] = experiment: Cell cycle arrest in human A2780 cells assessed as accumulation at G0/G1 phase at 2 uM after 48 hrs by propidium iodide/RNase-staining based flow cytometric analysis (reference value: 57.5 +/- 4.5%); type: functional
A2780 [4] = experiment: Cell cycle arrest in human A2780 cells assessed as accumulation at S phase at 2 uM after 48 hrs by propidium iodide/RNase-staining based flow cytometric analysis (reference value: 29.6 +/- 3.1%); type: functional
A2780 [5] = experiment: Cell cycle arrest in human A2780 cells assessed as accumulation at G2/M phase at 2 uM after 48 hrs by propidium iodide/RNase-staining based flow cytometric analysis (reference value: 12.9 +/- 1.4%); type: functional
A2780 [6] = experiment: Induction of apoptosis in human A2780 cells assessed as vital cells at 2 uM after 48 hrs by Annexin V-FITC/propidium iodide staining-based flow cytometric analysis (reference value: 78.4 +/- 2.1%); type: functional
A2780 [7] = experiment: Induction of apoptosis in human A2780 cells assessed as apoptotic cells at 2 uM after 48 hrs by Annexin V-FITC/propidium iodide staining-based flow cytometric analysis (reference value: 2.8 +/- 2.1%); type: functional
A2780 [8] = experiment: Induction of apoptosis in human A2780 cells assessed as secondary necrotic cells at 2 uM after 48 hrs by Annexin V-FITC/propidium iodide staining-based flow cytometric analysis (reference value: 8.2 +/- 0.7%); type: functional
A2780 [9] = experiment: Induction of apoptosis in human A2780 cells assessed as necrotic cells at 2 uM after 48 hrs by Annexin V-FITC/propidium iodide staining-based flow cytometric analysis (reference value: 10.6 +/- 1.2%); type: functional
[10] = Selectivity index, ratio of EC50 for mouse NIH/3T3 cells to EC50 for human A2780 cells; type: toxicity; details: NIH/3T3 cells and A2780 cells, read-out: Ratio EC50
A2780 [11] = experiment: Cytotoxicity against human A2780 cells assessed as morphological changes after 48 hrs by acridine orange/propidium iodide staining based fluorescence microscopic method; type: functional, cell-based
A2780 [12] = experiment: Cell cycle arrest in human A2780 cells assessed as accumulation at sub-G1 phase at 1.2 uM after 48 hrs by propidium iodide/RNase-staining based flow cytometric analysis; type: functional
A2780 [13] = experiment: Cell cycle arrest in human A2780 cells assessed as accumulation at G0/G1 phase at 1.2 uM after 48 hrs by propidium iodide/RNase-staining based flow cytometric analysis (reference value: 57.5 +/- 4.5%); type: functional
A2780 [14] = experiment: Cell cycle arrest in human A2780 cells assessed as accumulation at S phase at 1.2 uM after 48 hrs by propidium iodide/RNase-staining based flow cytometric analysis (reference value: 29.6 +/- 3.1%); type: functional
A2780 [15] = experiment: Cell cycle arrest in human A2780 cells assessed as accumulation at G2/M phase at 1.2 uM after 48 hrs by propidium iodide/RNase-staining based flow cytometric analysis (reference value: 12.9 +/- 1.4%); type: functional
A2780 [16] = experiment: Induction of apoptosis in human A2780 cells assessed as vital cells at 1.2 uM after 48 hrs by Annexin V-FITC/propidium iodide staining-based flow cytometric analysis (reference value: 78.4 +/- 2.1%); type: functional
A2780 [17] = experiment: Induction of apoptosis in human A2780 cells assessed as apoptotic cells at 1.2 uM after 48 hrs by Annexin V-FITC/propidium iodide staining-based flow cytometric analysis (reference value: 2.8 +/- 2.1%); type: functional
A2780 [18] = experiment: Induction of apoptosis in human A2780 cells assessed as secondary necrotic cells at 1.2 uM after 48 hrs by Annexin V-FITC/propidium iodide staining-based flow cytometric analysis (reference value: 8.2 +/- 0.7%); type: functional
A2780 [19] = experiment: Induction of apoptosis in human A2780 cells assessed as necrotic cells at 1.2 uM after 48 hrs by Annexin V-FITC/propidium iodide staining-based flow cytometric analysis (reference value: 10.6 +/- 1.2%); type: functional

Compound	EC50 (HT-29) [µM]	EC50 (MCF7) [µM]	EC50 (518A2) [µM]	EC50 (A2780 [1]) [µM]	EC50 (A549) [µM]	EC50 (FaDu) [µM]	EC50 (NIH3T3) [µM]	selectivity ratio [10]	also measured
C=CCN(CC(=O)NC(C)(C)C)C(=O)[C@]12CCC(C)(C)C[C@H]1C1=CC[C@@H]3[C@@]4(C)C[C@@H](OC(C)=O)[C@H](OC(C)=O)C(C)(C)[C@@H]4CC[C@@]3(C)[C@]1(C)CC2	3.9	4.1	2.9	0.5	4.4	4.8	7.8		Activity (A2780 [2]): 5.3%; Activity (A2780 [3]): 56.8%; Activity (A2780 [4]): 31.7%; Activity (A2780 [5]): 6.3%; Activity (A2780 [6]): 61.7%; Activity (A2780 [7]): 9.9%; Activity (A2780 [8]): 14.6%; Activity (A2780 [9]): 13.7%
C=CCN(CC(=O)NCC(=O)OC)C(=O)[C@]12CCC(C)(C)C[C@H]1C1=CC[C@@H]3[C@@]4(C)CC[C@H](OC(C)=O)C(C)(C)[C@@H]4CC[C@@]3(C)[C@]1(C)CC2	11.1	4.6	7.7	3.5	6.3	12.2	7.3	2.1	
CC(=O)O[C@H]1CC[C@]2(C)[C@H]3CC=C4[C@@H]5CC(C)(C)CC[C@]5(C(=O)N(CC(=O)NC(C)(C)C)Cc5ccccc5)CC[C@@]4(C)[C@]3(C)CC[C@H]2C1(C)C	> 30	14.1	15	2.7	> 30	16	> 30	> 11	
CC1(C)CC[C@]2(C(=O)N(CC(=O)NCc3ccccc3)Cc3ccoc3)CC[C@]3(C)C(=CC[C@@H]4[C@@]5(C)CC[C@H](O)C(C)(C)[C@@H]5CC[C@]43C)[C@@H]2C1	> 30	12.6	> 30	13.2	> 30	> 30	> 30		
CCCCN(CC(=O)NCc1ccccc1)C(=O)[C@]12CCC(C)(C)C[C@H]1C1=CC[C@@H]3[C@@]4(C)CC[C@H](OC(C)=O)C(C)(C)[C@@H]4CC[C@@]3(C)[C@]1(C)CC2	> 30	> 30	8.2	4.4	> 30	19.8	> 30		
CC(=O)O[C@H]1CC[C@]2(C)[C@H]3CC=C4[C@@H]5CC(C)(C)CC[C@]5(C(=O)OCC(=O)NCc5ccccc5)CC[C@@]4(C)[C@]3(C)CC[C@H]2C1(C)C	11.3	6.4	7.7	6.8	6.9	7.2	6.4		
CC1(C)CC[C@]2(C(=O)O)CC[C@]3(C)C(=CC[C@@H]4[C@@]5(C)CC[C@H](O)C(C)(C)[C@@H]5CC[C@]43C)[C@@H]2C1 [OLEANOLIC_ACID]	44.9	49.1	61.3	58.2	64.1	66.7	57.9		
CC(=O)O[C@@H]1C[C@]2(C)[C@H]3CC=C4[C@@H]5CC(C)(C)CC[C@]5(C(=O)N(CC(=O)NC(C)(C)C)Cc5ccoc5)CC[C@@]4(C)[C@]3(C)CC[C@H]2C(C)(C)[C@H]1OC(C)=O	3.4	4	3.9	0.4	3.5	3	7.3		
CC(=O)O[C@@H]1C[C@]2(C)[C@H]3CC=C4[C@@H]5CC(C)(C)CC[C@]5(C(=O)N(CC(=O)NCc5ccccc5)Cc5ccccc5)CC[C@@]4(C)[C@]3(C)CC[C@H]2C(C)(C)[C@H]1OC(C)=O	2.1	2.1	1.2	0.3	2.2	2.1	21.9	73	Activity (A2780 [11]): Dose-dependent effect; Activity (A2780 [2]): 4.6%; Activity (A2780 [3]): 60.3%; Activity (A2780 [4]): 30.7%; Activity (A2780 [5]): 5.1%; Activity (A2780 [12]): 6.8%; Activity (A2780 [13]): 57.1%; Activity (A2780 [14]): 28.7%; Activity (A2780 [15]): 7.6%; Activity (A2780 [6]): 55.1%; Activity (A2780 [7]): 8.4%; Activity (A2780 [8]): 19.8%; Activity (A2780 [9]): 16.7%; Activity (A2780 [16]): 72.7%; Activity (A2780 [17]): 4.2%; Activity (A2780 [18]): 11.5%; Activity (A2780 [19]): 11.6%
CCCCNC(=O)CN(Cc1ccccc1)C(=O)[C@]12CCC(C)(C)C[C@H]1C1=CC[C@@H]3[C@@]4(C)CC[C@H](OC(C)=O)C(C)(C)[C@@H]4CC[C@@]3(C)[C@]1(C)CC2	> 30	22.1	> 30	3	> 30	22.7	> 30		
COC(=O)CNC(=O)CN(Cc1ccoc1)C(=O)[C@]12CCC(C)(C)C[C@H]1C1=CC[C@@H]3[C@@]4(C)CC[C@H](OC(C)=O)C(C)(C)[C@@H]4CC[C@@]3(C)[C@]1(C)CC2	14.3	7	6.5	3.5	6.5	5.9	8.9	2.5	
C=CCN(CC(=O)NCCCC)C(=O)[C@]12CCC(C)(C)C[C@H]1C1=CC[C@@H]3[C@@]4(C)CC[C@H](OC(C)=O)C(C)(C)[C@@H]4CC[C@@]3(C)[C@]1(C)CC2	> 30	> 30	15	3.1	> 30	16.1	> 30		
